Assays:
[1] = tested on: Collagen Type II; test: Real-Time PCR gene expression in human chondrocytes: type II collagen; format: cell-based; settings: 1% w/v, ratio to untreated control
Procedure: (§1) To evaluate the biological effects of chondroitin on human chondrocyte cultures, the expression of a set of genes considered key to establishing the phenotype, and suitable markers for evaluating the quality of the tissue generated, was determined. The study was conducted on chondrocytes prepared from human cartilage, as reported in Example 2, the cells being grown in the presence of chondroitin or chondroitin sulphate. Using a standard procedure, 5*10^4 cells per well were seeded in a 24-well multiwell plate. The chondrocytes were grown in DMEM containing 1% w/v of chondroitin or chondroitin sulphate (endotoxin content ≤0.1 EU/mg). The cells were stimulated for 4, 7 and 10 days (Ishak et al., International J. of Pediatric Otorhinolaryngology, 2011, 75: 835-840), after which the RNA was extracted with Trizol Reagent, as described in the kit manual (Life Technologies Ltd, Milan, Italy). A qualitative morphological analysis of the cell culture was also conducted at the various times, in parallel with RNA extraction, by observing the corresponding samples at 4, 7 and 10 days under the optical microscope. The cells seeded at the three different times were observed under the microscope, and the images that best represented the cell growth conditions were acquired using a time-lapse videomicroscopy workstation. After RNA extraction, reverse transcription was performed with a total of 1 μg RNA and then with amplification by Real-Time PCR of genes which are specific markers for chondrocytes (Table 3).
(§2) Genes connected with matrix production, such as aggrecan, type I collagen, type II collagen and the Sox9 gene, the expression of which is closely correlated with the expression of type II collagen, were analysed as specific markers for differentiation and characterisation of chondrocytes. (Akiyama H., Mod Rheumatol., 2008, 18(3): 213-9; Yang et al., J. of Orthopaedic Res. 2011).
(§3) The gene expression of said markers on human chondrocytes cultured in basic medium (control) and with chondroitin treatment (C) or chondroitin sulphate treatment (CS) was analysed on cell cultures in the second and third growth phases.
(§4) The results of the gene expression analysis were reported as the average of at least 3 independent experiments for tests conducted in the presence of C or CS, on cells in phases 2 and 3.

[2] = tested on: HaCat cells; test: Wound-healing test by time-lapse microscopy (keratinocyte growth); format: cell-based, human; settings: for time to wound repair (closure of the cut): HaCat confluent layer with cut, time-lapse, control closes after 40 h; for effect on the repair process: concentration of 0.1 w/v
Procedure: HaCat cells, an immortalised cell line of human keratinocytes, are used as model system. The HaCat cells are grown and amplified in Dulbecco's Modified Eagle Medium (DMEM) containing 10% foetal bovine serum (FBS)+1% Pen-Strep solution (10,000 units of penicillin-G/mL and 10 mg of streptomycin/mL in saline solution) in an incubator for cell cultures (37° C., 5% CO2 in humid air). The wound-healing experiments are conducted by time-lapse optical microscopy, a technique that allows cell behaviour to be monitored for lengthy times (2-4 days) in terms of adhesion, proliferation and motility. The system consists of an inverted optical microscope (Zeiss Axiovert 200), a thermostatic bath (LAUDA Ecoline), a CO2 microincubator with geometry such as to house plates of variable dimensions (from 6 to 96 wells), and a control unit for the output gases (air and CO2). The instrument is also equipped with a digital video camera and a control motor, which allows the incubator to move along directions x, y and z so that the images selected by the operator can be recorded and acquired at pre-set intervals.
The system thus assembled allows the cells to be maintained in an environment that reproduces the optimum conditions for cell growth (atmosphere with 5% v/v of CO2 in humid air and temperature of 37±0.1° C.), and monitored throughout the experiment. The system is also equipped with software which allows accurate analysis of the images. In particular, the instrumentation is equipped with automated software which allows wound repair to be calculated in wound-healing tests and provides data about the repair rate and cell migration rate, which are important parameters for evaluating the biorevitalising effect of substances that can accelerate or inhibit wound repair in vitro. […]

[3] = tested on: Collagen Type I; test: Real-Time PCR gene expression in human chondrocytes: type I collagen; format: cell-based; settings: for Fold Expression, Collagen Type I: 1% w/v, ratio to untreated control
Procedure: as §1, §2, §3, §4

Substance	Fold Expression, Collagen Type II ([1]; phase II, 4 g)	Fold Expression, Collagen Type II ([1]; phase II, 7 g)	Fold Expression, Collagen Type II ([1]; phase II, 10 g)	Fold Expression, Collagen Type II ([1]; phase III, 4 g)	Fold Expression, Collagen Type II ([1]; phase III, 7 g)	Fold Expression, Collagen Type II ([1]; phase III, 10 g)	time to wound repair (closure of the cut) [2]	effect on the repair process [2]	Fold Expression, Collagen Type I ([3]; phase II, 4 g)	Fold Expression, Collagen Type I ([3]; phase II, 7 g)	Fold Expression, Collagen Type I ([3]; phase II, 10 g)	Fold Expression, Collagen Type I ([3]; phase III, 4 g)	Fold Expression, Collagen Type I ([3]; phase III, 7 g)	Fold Expression, Collagen Type I ([3]; phase III, 10 g)	reduction in expression of type I collagen ([3]; growth phase 2, long incubation times, versus control) [%]
chondroitin	2.70 ± 0.32	2.4 ± 0.43	2.56 ± 0.75	1.69 ± 0.20	2.62 ± 0.47	2.3 ± 0.16	less than 20 h	accelerates the repair process	1.23 ± 0.29	1.03 ± 0.52	0.67 ± 0.20	0.24 ± 0.01	0.85 ± 0.49	0.59 ± 0.13	30
chondroitin sulphate [CS, reference compound]	2.8 ± 0.75	1.25 ± 0.45	0.58 ± 0.29	0.50 ± 0.01		0.8 ± 0.45	> 70 h	slows it	1.20 ± 0.56	1.44 ± 0.08	1.36 ± 0.05	0.34 ± 0.01	2.42 ± 0.88	1.09 ± 0.45	

Source: patent US10206944B2, “Chondroitin for use in medicine” (ALTERGON S.A., priority 2012, dated 2019)
